Assay results from publication PMC10286459 (Cell & Bioscience, 2023).
Non-standard residues stand in square brackets, D forms with d. Residues, ends and D or L forms follow the SMILES beside them.

What was measured:
[1] = target: T1, mouse Foxm1 (Mus musculus, UniProt O08696); experiment: Biotin-peptide Pulldown in 4T1 cell lysates; type: binding; settings: biotin-labeled, 20 µM, 4T1 cell lysates (500 µg); Fig. S18B
T1 construct: endogenous in cells; host or cells: 4T1 mouse breast cancer cell lysate
T1 sequence (O08696 whole entry): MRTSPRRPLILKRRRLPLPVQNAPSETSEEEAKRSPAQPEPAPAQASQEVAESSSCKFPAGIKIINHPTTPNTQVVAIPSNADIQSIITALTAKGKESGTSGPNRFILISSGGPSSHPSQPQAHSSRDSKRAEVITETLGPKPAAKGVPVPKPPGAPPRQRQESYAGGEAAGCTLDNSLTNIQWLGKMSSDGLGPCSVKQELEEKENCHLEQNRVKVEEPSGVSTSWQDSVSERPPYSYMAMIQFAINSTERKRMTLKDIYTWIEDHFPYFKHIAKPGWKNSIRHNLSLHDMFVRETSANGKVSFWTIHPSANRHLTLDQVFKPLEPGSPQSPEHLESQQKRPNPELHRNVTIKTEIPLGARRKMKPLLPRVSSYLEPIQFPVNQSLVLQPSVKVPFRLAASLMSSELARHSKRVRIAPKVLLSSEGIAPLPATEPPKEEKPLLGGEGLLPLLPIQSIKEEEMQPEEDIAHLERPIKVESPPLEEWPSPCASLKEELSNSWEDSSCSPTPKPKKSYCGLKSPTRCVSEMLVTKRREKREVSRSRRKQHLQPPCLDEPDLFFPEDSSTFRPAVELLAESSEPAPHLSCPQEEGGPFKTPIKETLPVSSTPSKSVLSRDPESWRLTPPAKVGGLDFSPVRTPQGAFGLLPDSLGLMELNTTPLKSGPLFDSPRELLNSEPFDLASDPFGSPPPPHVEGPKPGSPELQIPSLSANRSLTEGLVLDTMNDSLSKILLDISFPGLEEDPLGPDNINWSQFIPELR

[2] = test system: MDA-MB-231 cells; experiment: Colony formation assay; settings: MDA-MB-231, 200 cells/well, 20 µM, 14 days; versus M1-21mut
Protocol: C qPCR was used to verify changes in PCNA and CyclinB1 mRNA levels from panel A samples. […] D MDA-MB-231 cells were treated as panel A and cell lysates were prepared. PCNA and CyclinB1 protein levels were measured by Western blotting. β-actin was used as a loading control. […] The cells were fixed with 4% paraformaldehyde and stained with crystal violet for imaging. The treatment’s ability to form colonies was measured by counting the number of cell colonies in each well. F BALB/c nude mice (female, 6 weeks old) were subcutaneously injected with MDA-MB-231 cells (1 × 10^6 cells/mouse). […] The volume of engrafted tumors was measured every two days and growth curves were obtained at the end of the experiment. The tumor volume (V) was calculated by: V = length × diameter^2 × 1/2. G Images and weight of engrafted tumors on Day 19. H MDA-MB-231 cells were seeded into plates to reach 90% confluence. A 200 µl pipette tip was used to thread a line and then photographed. […] Number of repetitions = 3. […] The levels of mRNA or protein of E-cadherin (E-cad), Vimentin (VIM), and N-cadherin (N-cad) were measured by qPCR or Western blotting, respectively. GAPDH or β-actin was used as a loading control for mRNA or protein. mRNA values represented the mean ± SD of three replicates, and significance was calculated using unpaired t test. *P < 0.05; **P < 0.01; ***P < 0.001 […]

[3] = test system: β-catenin; experiment: β-catenin levels in cytosol and nuclear protein samples; settings: MDA-MB-231, 20 µM for 6 h; Western blotting
Protocol: The recombinant proteins in the samples were separated by PAGE-gel and detected with Ponceau S staining solution (marked by *). 10% of recombinant proteins (10 µg) were used as input controls. […] Mean binding affinity values (KD (µM)) were shown on the panel. Experiments were repeated three times with similar results. C Reporter plasmids containing the luciferase gene downstream of the 6×FOXM1 binding sequence (6×FOXM1 Binding-Luc, 0.4 µg) or the − 1.8 kb CDC25B promoter (CDC25B pro(-1.8 kb)-Luc, 0.4 µg) were co-transfected with pCMV-FOXM1 (0.6 µg) into HEK-293T cells, plus pRL-CMV plasmid (20 ng/well) as a loading control. […] The levels of Flag-FOXM1 and PLK1 proteins in the samples were detected by Western blotting. […] E Flag-FOXM1, LIN9, and B-MYB protein levels in panel D samples were detected by Western blotting. […] The mRNA levels of PLK1, CDC25B, and Vimentin (VIM) were measured by qPCR. […] The protein levels of PLK1, CDC25B, and Vimentin (VIM) were measured by Western blotting. β-actin was used as a loading control.
The cells were washed with ice-cold 1×PBS and lysed on ice with IP lysate buffer containing 20 mM Tris/HCl pH 7.6, 150 mM NaCl, 1% NP-40, 0.1 mM EDTA, and protease inhibitors. […] After centrifugation, the protein concentration in the supernatant was measured with a BCA protein reagent (Thermo Fisher Scientific, USA). […]

[4] = H&E staining of organs after repeated injection; type: in vivo, mouse; settings: ICR/JCL mice, 30 mg/kg intraperitoneal once every two days for three weeks
Protocol: (§1) One week later, the animals’ different organs were harvested and subjected to tissue sectioning and H&E staining. Photos were taken by inverted microscope (400×, Nikon TE2000). […] The mice’s diet and activity were observed continuously for 14 days. […] Water and PBS were used as hemolysis positive and negative controls, respectively. The absorbance of the samples was measured at 540 nm and used to calculate the Hemolysis rate % = [(OD Sample - OD Negative) / (OD Positive - OD Negative)] × 100%. E Immunogenicity analysis of M1-21. […] Blood samples were collected from mice at different time points (Week 2 to Week 8) and the absorption of anti-M1-21 antibody in serum (1:1000 dilution) was measured by ELISA. HRP-conjugated anti-mouse IgG was used as an ELISA secondary antibody.

[5] = Immunogenicity, ELISA of anti-M1-21 antibodies in serum; type: in vivo, mouse; settings: ICR/JCL mice, 30 mg/kg/week × 4 weeks I.P., serum Week 2 to Week 8, 1:1000, ELISA 492 nm; except at Week 4
Protocol: as §1
(§2) Hemolysis assays were performed with fresh mouse blood collected and dispersed in normal saline (NaCl 0.9%) at 10% (v/v). […] Sterile double distilled water and PBS were used as positive and negative controls, respectively. Immunogenicity of M1-21 was detected by ELISA in mice. […] Blood samples were collected from mice at different time points (Week 2 to Week 8). […] ELISA plates were washed twice with PBS and blocked with 3% bovine serum albumin for 2 h. […] Absorption was measured at 492 nm.

[6] = test system: MDA-MB-231 cells; experiment: Wound Healing assay; settings: MDA-MB-231, 10 µM for 36 h; versus M1-21mut; n = 3
[7] = test system: mouse erythrocytes; experiment: Hemolysis assay; settings: 800 µg/mL, mouse blood 10% (v/v) in normal saline, 37℃ for 3 h, absorbance 540 nm
Protocol: as §1, §2

[8] = test system: TCF/LEF-binding promoter; experiment: Dual luciferase reporter, TCF/LEF-binding promoter; settings: HEK-293T; 5, 10, 20 µM for 24 h; n = 3
Protocol: C Reporter plasmids containing the luciferase gene downstream of the 6×FOXM1 binding sequence (6×FOXM1 Binding-Luc, 0.4 µg) or the − 1.8 kb CDC25B promoter (CDC25B pro(-1.8 kb)-Luc, 0.4 µg) were co-transfected with pCMV-FOXM1 (0.6 µg) into HEK-293T cells, plus pRL-CMV plasmid (20 ng/well) as a loading control. […] Then cell lysates were prepared and used for the measurement of dual Luciferase activities. Number of repetitions = 3. […] F Reporter plasmids containing the luciferase gene downstream of the − 1.4 kb PLK1 promoter (PLK1 pro(-1.4 kb)-Luc, 0.4 µg) were co-transfected with pCMV-FOXM1 (0.6 µg) into HEK-293T cells, plus pRL-CMV plasmid (20 ng/well) as loading control. […] Then cell lysates were prepared and used to measure dual Luciferase activity. Number of repetitions = 3.
HEK-293T cells (1×10^5 cells/well in 12-well plates) were transfected (EZ Trans, LIFE iLAB BIO, China) with certain luciferase reporter vectors (0.4 µg) and expression vector (0.6 µg) (or control plasmid (0.6 µg)). pRL-CMV plasmid (20 ng) was used as loading control for each transfection. 8 Hours after transfection, the medium was replaced and inhibitory peptides (or control peptide) with different concentrations were added. Finally, luciferase activity was measured 48 hours later with the Dual luciferase Assay system (Promega, USA) according to the manufacturer's instructions.

[9] = target: interaction between FOXM1 and β-catenin (Homo sapiens, UniProt Q08050); experiment: Co-IP in 231-Flag-FOXM1-Ind cells; settings: 10, 20 µM for 6 h
interaction between FOXM1 and β-catenin, sequence (Q08050 1-748 isoform Q08050-2): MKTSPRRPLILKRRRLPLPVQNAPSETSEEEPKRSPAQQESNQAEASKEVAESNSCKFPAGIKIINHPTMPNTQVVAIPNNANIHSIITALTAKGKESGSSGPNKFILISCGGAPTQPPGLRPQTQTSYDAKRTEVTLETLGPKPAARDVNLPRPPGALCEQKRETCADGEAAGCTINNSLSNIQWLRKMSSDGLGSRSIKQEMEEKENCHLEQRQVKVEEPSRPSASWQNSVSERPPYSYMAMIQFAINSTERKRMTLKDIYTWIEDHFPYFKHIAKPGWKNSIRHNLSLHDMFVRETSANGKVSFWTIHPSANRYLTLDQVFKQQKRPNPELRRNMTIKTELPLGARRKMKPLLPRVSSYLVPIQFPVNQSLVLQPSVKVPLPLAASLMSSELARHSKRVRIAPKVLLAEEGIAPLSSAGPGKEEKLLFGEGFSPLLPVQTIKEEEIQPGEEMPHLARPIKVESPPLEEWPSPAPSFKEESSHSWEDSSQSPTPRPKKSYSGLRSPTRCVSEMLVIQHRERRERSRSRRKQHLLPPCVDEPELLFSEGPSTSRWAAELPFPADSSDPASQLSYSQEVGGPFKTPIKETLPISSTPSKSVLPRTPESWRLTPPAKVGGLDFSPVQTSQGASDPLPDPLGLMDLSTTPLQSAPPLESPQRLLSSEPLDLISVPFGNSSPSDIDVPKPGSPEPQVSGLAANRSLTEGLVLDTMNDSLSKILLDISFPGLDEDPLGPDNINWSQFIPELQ
Protocol: Cell lysates (500 µg) were extracted and incubated with anti-Flag magnetic beads to pull down Flag-FOXM1/proteins complexes. […] 5% of cell lysates (25 µg) were used as input controls.
For Co-IP, IP lysate buffer was used to extract total protein. 500 µg protein lysates were incubated with 20 µl of Anti-Flag Magnetic Beads (Bimake, USA) for Flag-FOXM1 proteins at 4 °C for 3 h. The beads were washed 5 times with pre-cooled 1×PBS and subjected to Western blotting.

CC[C@@H](C)[C@@H](NC(=O)[C@@H](CC(C)C)NC(=O)[C@H](NC(=O)[C@@H](CO)NC(=O)[C@@H](CS)NC(=O)CNC(=O)CNC(=O)[C@@H](C)NC(=O)[C@H]1CCCN1C(=O)[C@H](NC(=O)[C@@H](CCC(N)=O)NC(=O)[C@H]1CCCN1C(=O)[C@H]1CCCN1C(=O)CNC(=O)[C@@H](CC(C)C)NC(=O)[C@@H](CCCNC(=N)N)NC(=O)[C@H]1CCCN1C(=O)[C@@H](CCC(N)=O)NC(=O)[C@H](NC(=O)[C@H](N)CCC(N)=O)[C@H](C)O)[C@H](C)O)[C@H](C)CC)C(=O)N[C@H](Cc1ccccc1)C(=O)N[C@H](CCCNC(=N)N)C(=O)N[C@H](CCCNC(=N)N)C(=O)N[C@H](CCCNC(=N)N)C(=O)N[C@H](CCC(N)=O)C(=O)N[C@H](CCCNC(=N)N)C(=O)N[C@H](CCCNC(=N)N)C(=O)N[C@H](CCCCN)C(=O)N[C@H](CCCCN)C(=O)N[C@H](CCCNC(=N)N)C(=O)NCC(=O)O [M1-21] (H-[dQ][dT][dQ][dP][dR][dL]G[dP][dP][dQ][dT][dP][dA]GG[dC][dS][dI][dL][dI][dF][dR][dR][dR][dQ][dR][dR][dK][dK][dR]G-OH; N-terminus and C-terminus assumed)
binding to endogenous mouse Foxm1 in Pulldown [1]: could bind | colony formation [2]: inhibitory effects | β-catenin levels in cytoplasm and nucleus [3]: elevated levels of β-catenin in the cytoplasm and declined levels of β-catenin in the nucleus | morphological lesions in heart, liver, spleen, lung, and kidney (H&E) [4]: no obvious morphological lesions | M1-21-specific antibody generation in serum [5]: relatively low levels | cell migration [6]: inhibited | hemolysis to erythrocytes [7]: very mild hemolysis | β-catenin-mediated stimulation on the TCF/LEF-binding promoter (luciferase) [8]: abolished β-catenin-mediated stimulation | interaction between FOXM1 and β-catenin (Co-IP) [9]: disrupted the interaction
